Results taken from patent publication US20040063662A1, “Selenophene anti-tumor agents” (priority 1996, published 2004).

Key:
[1] = test system: panel of sixty different human tumor cell lines; assay: NCI human tumor cell panel: whole panel (mean graph summary)
IGROV1 = assay: NCI human tumor cell panel: IGROV1 (Ovarian Cancer); format: cell-based
SK-MEL-5 = assay: NCI human tumor cell panel: SK-MEL-5 (Melanoma); format: cell-based
SN12C = assay: NCI human tumor cell panel: SN12C (Renal Cancer); format: cell-based
NCI-H23 = assay: NCI human tumor cell panel: NCI-H23 (Non-Small Cell Lung Cancer); format: cell-based
TK-10 = assay: NCI human tumor cell panel: TK-10 (Renal Cancer); format: cell-based
A498 = assay: NCI human tumor cell panel: A498 (Renal Cancer); format: cell-based
OVCAR-5 = assay: NCI human tumor cell panel: OVCAR-5 (Ovarian Cancer); format: cell-based; details: OVCAR-5, read-out: Log10 GI50 (converted)
T-47D = assay: NCI human tumor cell panel: T-47D (Breast Cancer); format: cell-based; details: T47D
MCF7/ADR-RES = assay: NCI human tumor cell panel: MCF7/ADR-RES (Breast Cancer); format: cell-based
CCRF-CEM = assay: NCI human tumor cell panel: CCRF-CEM (Leukemia); format: cell-based
BT-549 = assay: NCI human tumor cell panel: BT-549 (Breast Cancer); format: cell-based
SNB-19 = assay: NCI human tumor cell panel: SNB-19 (CNS Cancer); format: cell-based
CAKI-1 = assay: NCI human tumor cell panel: CAKI-1 (Renal Cancer); format: cell-based
SK-MEL-2 = assay: NCI human tumor cell panel: SK-MEL-2 (Melanoma); format: cell-based
786-0 = assay: NCI human tumor cell panel: 786-0 (Renal Cancer); format: cell-based
A549/ATCC = assay: NCI human tumor cell panel: A549/ATCC (Non-Small Cell Lung Cancer); format: cell-based
NCI-H522 = assay: NCI human tumor cell panel: NCI-H522 (Non-Small Cell Lung Cancer)
K-562 = assay: NCI human tumor cell panel: K-562 (Leukemia); format: cell-based
SK-MEL-28 = assay: NCI human tumor cell panel: SK-MEL-28 (Melanoma); format: cell-based
SK-OV-3 = assay: NCI human tumor cell panel: SK-OV-3 (Ovarian Cancer); format: cell-based
HS 578T = assay: NCI human tumor cell panel: HS 578T (Breast Cancer); format: cell-based; details: read-out: Log10 TGI (converted)
PC-3 = assay: NCI human tumor cell panel: PC-3 (Prostate Cancer); format: cell-based
COLO 205 = assay: NCI human tumor cell panel: COLO 205 (Colon Cancer); format: cell-based
MDA-MB-231/ATCC = assay: NCI human tumor cell panel: MDA-MB-231/ATCC (Breast Cancer); format: cell-based; details: Homo sapiens, MDA-MB-231, MDA-MB-231/ATCC
[2] = read-out: Log10 GI50 (converted)
[3] = read-out: Log10 TGI (converted)

OCc1ccc(-c2ccc(-c3ccc(CO)[se]3)s2)s1 [compound 688830]
GI50 ([1]; Homo sapiens, read-out: Log10 GI50, MG_MID, mean over the panel (converted)): 2.29 µM | CC50 ([1]; Homo sapiens, read-out: Log10 LC50, MG_MID, mean over the panel (converted)): 69.2 µM | Log10 TGI, MG_MID ([1]; mean over the panel): −4.62 | Log10 TGI, Delta ([1]; whole panel): 2.99 | Log10 TGI, Range ([1]; whole panel): 3.61 | GI50 (IGROV1; IGROV-1, IGROV1, read-out: Log10 GI50 (converted)): 0.0141 µM | IC (TGI) (IGROV1; IGROV-1, IGROV1, read-out: Log10 TGI (converted)): 0.174 µM | GI50 (SK-MEL-5; SK-MEL-5, read-out: Log10 GI50 (converted)): 36.3 µM | IC (TGI) (SK-MEL-5; SK-MEL-5, read-out: Log10 TGI (converted)): > 100 µM | GI50 (SN12C; [2]): 49 µM | IC (TGI) (SN12C; [3]): > 100 µM | GI50 (NCI-H23; NCI-H23, read-out: Log10 GI50 (converted)): 85.1 µM | IC (TGI) (NCI-H23; NCI-H23, read-out: Log10 TGI (converted)): > 100 µM | GI50 (TK-10; TK-10, read-out: Log10 GI50 (converted)): < 0.01 µM | IC (TGI) (TK-10; TK-10, read-out: Log10 TGI (converted)): 0.0372 µM | GI50 (A498; A498, read-out: Log10 GI50 (converted)): < 0.01 µM | IC (TGI) (A498; A498, read-out: Log10 TGI (converted)): 0.0245 µM | GI50 (OVCAR-5): 0.0229 µM | GI50 (T-47D; [2]): 0.288 µM | IC (TGI) (T-47D; [3]): 57.5 µM | GI50 (MCF7/ADR-RES; [2]): 12.3 µM | IC (TGI) (MCF7/ADR-RES; [3]): > 100 µM | GI50 (CCRF-CEM; [2]): 25.7 µM | IC (TGI) (CCRF-CEM; [3]): > 100 µM | GI50 (BT-549; BT-549, read-out: Log10 GI50 (converted)): > 100 µM | IC (TGI) (BT-549; BT-549, read-out: Log10 TGI (converted)): > 100 µM | GI50 (SNB-19; SNB-19, read-out: Log10 GI50 (converted)): 33.9 µM | IC (TGI) (SNB-19; SNB-19, read-out: Log10 TGI (converted)): 87.1 µM | GI50 (CAKI-1; CAKI-1, read-out: Log10 GI50 (converted)): < 0.01 µM | IC (TGI) (CAKI-1; CAKI-1, read-out: Log10 TGI (converted)): 0.0282 µM | GI50 (SK-MEL-2; SK-MEL-2, read-out: Log10 GI50 (converted)): 39.8 µM | IC (TGI) (SK-MEL-2; SK-MEL-2, read-out: Log10 TGI (converted)): > 100 µM | GI50 (786-0; 786-0, read-out: Log10 GI50 (converted)): 6.46 µM | IC (TGI) (786-0; 786-0, read-out: Log10 TGI (converted)): 22.9 µM | GI50 (A549/ATCC; [2]): 6.03 µM | IC (TGI) (A549/ATCC; [3]): 33.1 µM | GI50 (NCI-H522; NCI-H522, read-out: Log10 GI50 (converted)): > 100 µM | IC (TGI) (NCI-H522; NCI-H522, read-out: Log10 TGI): > 100 µM | GI50 (K-562; K562, K-562, read-out: Log10 GI50 (converted)): 0.0724 µM | IC (TGI) (K-562; K562, K-562, read-out: Log10 TGI (converted)): 17.4 µM | GI50 (SK-MEL-28; SK-MEL-28, read-out: Log10 GI50 (converted)): > 100 µM | IC (TGI) (SK-MEL-28; SK-MEL-28, read-out: Log10 TGI (converted)): > 100 µM | GI50 (SK-OV-3; SK-OV-3, read-out: Log10 GI50 (converted)): 3.24 µM | IC (TGI) (SK-OV-3; SK-OV-3, read-out: Log10 TGI (converted)): 19.5 µM | IC (TGI) (HS 578T): > 100 µM | GI50 (PC-3; PC-3, read-out: Log10 GI50 (converted)): 30.9 µM | IC (TGI) (PC-3; PC-3, read-out: Log10 TGI (converted)): > 100 µM | GI50 (COLO 205; COLO 205, read-out: Log10 GI50 (converted)): 0.447 µM | IC (TGI) (COLO 205; COLO 205, read-out: Log10 TGI (converted)): 5.5 µM | GI50 (MDA-MB-231/ATCC; [2]): 12.6 µM | IC (TGI) (MDA-MB-231/ATCC; [3]): 35.5 µM
